In brackets after ≈: the same amount, converted by molar mass. Like-named read-outs stand apart in the source and are kept apart here.
How the values were obtained:
Format in all cases: cell-based
[1] = tested on: Staphylococcus aureus Smith strain; test: MIC for Staphylococcus aureus Smith strain; conditions: Smith strain, regular bouillon medium, 37° C. overnight, turbidity, read-out: MIC Straphyrococcus aureus Smith
[2] = tested on: Staphylococcus aureus 209P strain; test: MIC for Staphylococcus aureus 209P strain; conditions: Staphylococcus aureus, read-out: MIC Straphyrococcus aureus 209P
[3] = tested on: Staphylococcus aureus MRSA No. 17 (methicillin-resistant Staphylococcus aureus: MRSA); test: MIC for Staphylococcus aureus MRSA No. 17; conditions: MRSA No. 17, regular bouillon medium, 37° C. overnight, turbidity, read-out: MIC Straphyrococcus aureus MRSA No. 17 (MRSA)
[4] = tested on: Enterococcus faecalis 5038 strain; test: MIC for Enterococcus faecalis 5038 strain; conditions: read-out: MIC Enterococcus faecalis 5038
[5] = tested on: Enterococcus faecalis NCTC12201 strain (vancomycin-resistant Enterococcus: VRE); test: MIC for Enterococcus faecalis NCTC12201 strain (VRE); conditions: read-out: MIC Enterococcus faecalis NCTC 12201 (VRE)
[6] = tested on: Clostridium difficile JCM1296 strain; test: microbe, parasite or virus in culture; conditions: Clostridioides difficile, JCM1296, read-out: MIC Clostridium difficile JCM1296
[7] = tested on: Clostridium perfringens PB6K strain; test: microbe, parasite or virus in culture; conditions: Clostridium perfringens, PB6KSTRAIN, read-out: MIC Clostridium perfringens PB6K, PB6K strain; CD medium, 37° C. overnight, 10% CO2-containing anaerobic conditions
[8] = tested on: Escherichia coli K-12 strain; test: MIC for Escherichia coli K-12 strain; conditions: Escherichia coli, K12STRAIN, read-out: MIC Escherichia coli K12
[9] = tested on: Escherichia coli BE1121 strain; test: MIC for Escherichia coli BE1121 strain; conditions: Escherichia coli, BE1121STRAIN, read-out: MIC Escherichia coli BE1121
[10] = 209P strain, regular bouillon medium, 37° C. overnight, turbidity
[11] = 5038 strain, Heart Infusion Broth medium, 37° C. overnight, turbidity
[12] = NCTC12201 strain (VRE), Heart Infusion Broth medium, 37° C. overnight, turbidity
[13] = K-12 strain, regular bouillon medium, 37° C. overnight, turbidity
[14] = BE1121 strain, regular bouillon medium, 37° C. overnight, turbidity

| Compound | MIC [1] [µg/mL] | MIC [2, 10] [µg/mL] | MIC [3] [µg/mL] | MIC [4, 11] [µg/mL] | MIC [5, 12] [µg/mL] | MIC [6] [µg/mL] | MIC [7] [µg/mL] | MIC [8, 13] [µg/mL] | MIC [9, 14] [µg/mL] | MIC ([2]; 209P) [µg/mL] | MIC [8] [µg/mL] | MIC [9] [µg/mL] | MIC ([4]; 5038STRAIN) [µg/mL] | MIC [5] [µg/mL] |
| --- | --- | --- | --- | --- | --- | --- | --- | --- | --- | --- | --- | --- | --- | --- |
| CCCCCCCCCCOC(C)C(O)=C1C(=O)N(C(=O)NCCCC)c2ccccc21 (stereo not drawn) [A020, N-(butylaminocarbonyl)-3-(2-decyloxypropionyl)-2-oxyindole] | 1 (≈ 2.25 µM) | 256 (≈ 576 µM) | 256 (≈ 576 µM) | 0.5 (≈ 1.12 µM) | 1 (≈ 2.25 µM) | 0.5 (≈ 1.12 µM) | 4 (≈ 9 µM) | 256 (≈ 576 µM) | 256 (≈ 576 µM) | – | – | – | – | – |
| CCCCCCCCCCOC(C)C(O)=C1C(=O)N(C(=O)Nc2ccccc2)c2ccccc21 (stereo not drawn) [A021, N-(phenylaminocarbonyl)-3-(2-decyloxypropionyl)-2-oxyindole] | 0.5 (≈ 1.08 µM) | 128 (≈ 276 µM) | 256 (≈ 551 µM) | 0.5 (≈ 1.08 µM) | 0.5 (≈ 1.08 µM) | 1 (≈ 2.15 µM) | 2 (≈ 4.3 µM) | 256 (≈ 551 µM) | 256 (≈ 551 µM) | – | – | – | – | – |
| CCCCCCCCCC(=O)N1C(=O)C(=C(C)O)c2ccccc21 [A022, N-decanoyl-3-acetyl-2-oxyindole] | 2 (≈ 6.07 µM) | 8 (≈ 24.3 µM) | 4 (≈ 12.1 µM) | 1 (≈ 3.04 µM) | 1 (≈ 3.04 µM) | 0.25 (≈ 0.759 µM) | 4 (≈ 12.1 µM) | 128 (≈ 389 µM) | 16 (≈ 48.6 µM) | – | – | – | – | – |
| CCCCCCCCCCOCC(O)=C1C(=O)N(C(C)=O)c2ccc(F)cc21 [A023, N-acetyl-3-decyloxyacetyl-5-fluoro-2-oxyindole] | 1 (≈ 2.55 µM) | 128 (≈ 327 µM) | 64 (≈ 163 µM) | 0.25 (≈ 0.639 µM) | 0.25 (≈ 0.639 µM) | < 0.125 | < 0.125 | 128 (≈ 327 µM) | 128 (≈ 327 µM) | – | – | – | – | – |
| CC(=O)N1C(=O)C(=C(O)CCCCCCCCCBr)c2ccccc21 [A024, N-acetyl-3-(10-bromodecanoyl)-2-oxyindole] | 4 (≈ 9.8 µM) | – | 16 (≈ 39.2 µM) | 0.5 (≈ 1.22 µM) | 1 (≈ 2.45 µM) | 0.5 (≈ 1.22 µM) | 0.5 (≈ 1.22 µM) | – | – | 16 (≈ 39.2 µM) | 128 (≈ 313 µM) | 16 (≈ 39.2 µM) | – | – |
| O=C(Nc1ccccc1)N1C(=O)C(=C(O)CCCCCCCCCBr)c2ccccc21 [A025, N-(phenylaminocarbonyl)-3-(10-bromodecanoyl)-2-oxyindole] | 2 (≈ 4.12 µM) | 256 (≈ 527 µM) | 256 (≈ 527 µM) | 0.5 (≈ 1.03 µM) | 0.5 (≈ 1.03 µM) | 0.5 (≈ 1.03 µM) | 1 (≈ 2.06 µM) | 256 (≈ 527 µM) | 256 (≈ 527 µM) | – | – | – | – | – |
| CCCCCCCCCC(O)=C1C(=O)N(C(C)=O)c2ccc(Br)cc21 [A026, N-acetyl-5-bromo-3-decanoyl-2-oxyindole] | 0.25 (≈ 0.612 µM) | 4 (≈ 9.8 µM) | 4 (≈ 9.8 µM) | – | – | < 0.125 | 0.25 (≈ 0.612 µM) | 128 (≈ 313 µM) | 8 (≈ 19.6 µM) | – | – | – | < 0.125 | < 0.125 |
| CCCCC1CCC(C(O)=C2C(=O)N(C(=O)OC(C)(C)C)c3ccc(F)cc32)CC1 (stereo not drawn) [A027, N-Boc-3-(4-butylcyclohexylcarbonyl)-5-fluoro-2-oxyindole] | 16 (≈ 38.3 µM) | 128 (≈ 307 µM) | 128 (≈ 307 µM) | 8 (≈ 19.2 µM) | 8 (≈ 19.2 µM) | 1 (≈ 2.4 µM) | 2 (≈ 4.79 µM) | 128 (≈ 307 µM) | 128 (≈ 307 µM) | – | – | – | – | – |
| CCCCCCCCCCOCC(O)=C1C(=O)N(C(C)=O)c2ccc(Br)cc21 [A029, N-acetyl-5-bromo-3-decyloxyacetyl-2-oxyindole] | 0.5 (≈ 1.11 µM) | 128 (≈ 283 µM) | 128 (≈ 283 µM) | 0.25 (≈ 0.553 µM) | – | < 0.125 | < 0.125 | 128 (≈ 283 µM) | 128 (≈ 283 µM) | – | – | – | – | < 0.125 |
| CCCCCCCCCCSCC(O)=C1C(=O)N(C(C)=O)c2ccc(Br)cc21 [A030, N-acetyl-5-bromo-3-decylthioacetyl-2-oxyindole] | 0.25 (≈ 0.534 µM) | 2 (≈ 4.27 µM) | 2 (≈ 4.27 µM) | 0.25 (≈ 0.534 µM) | 0.25 (≈ 0.534 µM) | < 0.125 | < 0.125 | 256 (≈ 546 µM) | 8 (≈ 17.1 µM) | – | – | – | – | – |

Reference: patent US9512075B2 (OKAYAMA UNIVERSITY, priority 2012, dated 2016)
